# Data from patent US5430047A, “Neurotensin antagonists” (Warner-Lambert Company, priority 1994, dated 1995).
# Biological target: T1, neurotensin receptor (Mus musculus, UniProt O88319)
# T1 construct: from tissue
# Assay: Inhibition of [3H] neurotensin binding in a receptor assay
# Settings: [3H] neurotensin receptor binding
# Description: (§1) Thus, the compounds of Formula I were tested for their ability to inhibit [^3 H] neurotensin binding in a receptor assay described by Mazella J., et al., Journal of Biological Chemistry, 263:144-149 (1988) and Kitabgi P., et al., European Journal of Pharmacology, 140:285-293 (1987). Compounds were tested as neurotensin antagonists using the functional assay described by Bunzou J. C., et al., Biochem. J., 264:871-878 (1989) and Turner J., et al., J. Pharm. Exp. Ther., 253:1049-1056 (1990). Thus, compounds were tested for their ability to inhibit neurotensin-induced calcium mobilization in HT29 cells.
# (§2) The above test methods are incorporated herein by reference. The data in the table show the neurotensin receptor binding activity and calcium mobilization activity, of representative compounds of Formula I.
# T1 sequence (O88319 whole entry): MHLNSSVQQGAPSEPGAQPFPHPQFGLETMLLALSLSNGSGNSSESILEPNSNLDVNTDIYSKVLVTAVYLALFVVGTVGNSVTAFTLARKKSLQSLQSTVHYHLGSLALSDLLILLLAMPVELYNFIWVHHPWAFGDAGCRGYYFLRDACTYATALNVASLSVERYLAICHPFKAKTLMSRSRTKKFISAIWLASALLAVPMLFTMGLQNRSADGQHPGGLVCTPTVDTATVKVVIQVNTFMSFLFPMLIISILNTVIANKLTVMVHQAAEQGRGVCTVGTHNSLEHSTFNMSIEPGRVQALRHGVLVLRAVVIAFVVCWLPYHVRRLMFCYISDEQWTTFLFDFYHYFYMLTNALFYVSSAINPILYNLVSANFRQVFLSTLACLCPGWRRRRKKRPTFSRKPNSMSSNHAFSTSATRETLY
row,SMILES,Ki [µM]
1,"O=C(O)c1cccc(C(CCc2ccc(F)cc2)CC(=O)c2ccccc2)c1 (stereo not drawn) [Example 21, 3-[1-[2-(4-Fluorophenyl)ethyl]-3-oxo-3-phenylpropyl]-benzoic acid]",29.5
2,"O=C(O)c1cccc(C(CCc2ccc(Cl)cc2)CC(=O)c2ccccc2)c1 (stereo not drawn) [Example 19, 3-[1-[2-(4-Chlorophenyl)ethyl]-3-oxo-3-phenylpropyl]-benzoic acid]",17.7
3,"O=C(CC(CC(=O)c1ccc(F)cc1)c1cccc(-c2nnn[nH]2)c1)c1ccc(F)cc1 [Example 17, 1,5-Bis-(4-fluorophenyl)-3-[3-(1H-tetrazol-5-yl)-phenyl]-pentane-1,5-dione]",6.32
4,"O=C(O)c1cccc(C(CCc2ccc(F)cc2)CC(=O)c2ccc(F)cc2)c1 (stereo not drawn) [Example 22, 3-[3-(4-Fluorophenyl)-1-[2-(4-fluorophenyl)ethyl]-3-oxopropyl]-benzoic acid]",3.24
5,"Cc1ccc(C(=O)CC(CC(=O)c2ccc(F)cc2)c2cccc(C(=O)O)c2)cc1 (stereo not drawn) [Example 15, 3-[1-[2-(4-Fluorophenyl)-2-oxoethyl]-3-oxo-3-p-tolylpropyl]-benzoic acid]",0.448
6,"O=C(CC(CC(=O)c1ccc(Cl)cc1)c1cccc(-c2nnn[nH]2)c1)c1ccc(Cl)cc1 [Example 18, 1,5-Bis-(4-chlorophenyl)-3-[3-(1H-tetrazol-5-yl)phenyl]-pentane-1,5-dione]",5.9
7,"O=C(O)c1cccc(C(CCc2ccccc2)CC(=O)c2ccc(Cl)cc2)c1 (stereo not drawn) [Example 23, 3-[3-(4-Chlorophenyl)-3-oxo-1-[2-phenylethyl]propyl]-benzoic acid]",10.4
8,"O=C(O)c1cccc(C(CCc2ccc(Cl)cc2)CC(=O)c2ccc(Cl)cc2)c1 (stereo not drawn) [Example 20, 3-[3-(4-Chlorophenyl)-1-[2-(4-chlorophenyl)ethyl]-3-oxopropyl]-benzoic acid]",6.74

# Biological target: T2, neurotensin receptor (Homo sapiens, UniProt P30989)
# T2 construct: endogenous in cells; host or cells: HT29 cells
# Assay: Inhibition of neurotensin-induced calcium mobilization in HT29 cells
# Assay type: cell-based
# Settings: not given
# Description: as §1, §2
# T2 sequence (P30989 whole entry): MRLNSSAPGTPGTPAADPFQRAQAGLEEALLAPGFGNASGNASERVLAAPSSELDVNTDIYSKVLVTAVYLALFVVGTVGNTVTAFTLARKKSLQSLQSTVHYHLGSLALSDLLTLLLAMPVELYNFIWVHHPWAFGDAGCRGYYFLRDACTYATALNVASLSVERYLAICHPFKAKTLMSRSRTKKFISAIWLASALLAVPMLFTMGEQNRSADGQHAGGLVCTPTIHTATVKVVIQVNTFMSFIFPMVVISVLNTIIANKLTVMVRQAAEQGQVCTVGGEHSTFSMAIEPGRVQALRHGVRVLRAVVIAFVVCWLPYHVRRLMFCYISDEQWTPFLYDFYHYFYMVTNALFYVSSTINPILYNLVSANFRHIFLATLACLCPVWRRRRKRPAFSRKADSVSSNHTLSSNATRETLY
row,SMILES,IC50 [µM]
1,"COc1cccc(OC)c1C(=O)CC(CC(=O)c1ccc(Cl)cc1)c1cccc(C(=O)O)c1 (stereo not drawn) [Example 7, 3-[1-[2-(4-Chlorophenyl)-2-oxoethyl]-3-(2,6-dimethoxyphenyl)-3-oxopropyl]-benzoic acid]",2.2
